{"source": "PubChem BioAssay AID2060885", "about": "(Molecular Pharmacology Branch, DTP, NCI, 2025)", "system": "NCI-H23 complex spheroids with HUVEC/MSC, viability", "assay": "Anticancer human tumor NCI-H23 cell line growth inhibition [RAS];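 as to all read-outs here: spheroids exposed to compound for 7 days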;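 as to viability, T/C: 100% = DMSO vehicle control viability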", "details": "for IC50: curve of first compound; for viability, T/C: stronger effect = lower value", "how_it_was_run": "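Agents were tested in combination matrices in half-log decrements from a top concentration at or near clinical Cmax (10 microM if undetermined). Targets were multi-cell spheroids of tumour lines plus HUVEC and MSC stromal cells.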", "data": [{"smiles": "C=CC(=O)N1CCN(c2nc(OCC3CCCN3C)nc3c(F)c(-c4nc(N)cc(C)c4C(F)(F)F)c(Cl)cc23)C(C)C1", "note": "(configuration not stated) + CCn1c(-c2cc(N3CCN(C)CC3)cnc2C(C)OC)c2c3cc(ccc31)-c1csc(n1)CC(NC(=O)C1CC1C)C(=O)N1CCCC(N1)C(=O)OCC(C)(C)C2", "values": [{"measurement": "IC50", "setting": "second compound 0.000949 µM", "value": "< 3.16", "unit": "nM"}, {"measurement": "IC50", "setting": "second compound 0.003 µM", "value": "< 3.16", "unit": "nM"}, {"measurement": "IC50", "setting": "second compound 0.00949 µM", "value": "< 3.16", "unit": "nM"}, {"measurement": "IC50", "setting": "second compound 0.03 µM", "value": "< 3.16", "unit": "nM"}, {"measurement": "IC50", "setting": "second compound 0.0949 µM", "value": "< 3.16", "unit": "nM"}, {"measurement": "IC50", "setting": "second compound 0.3 µM", "value": "< 3.16", "unit": "nM"}, {"measurement": "viability, T/C", "setting": "second compound 0.000949 µM, first compound 0.00316 µM", "value": 32.5, "unit": "%"}, {"measurement": "viability, T/C", "setting": "second compound 0.000949 µM, first compound 0.01 µM", "value": 33, "unit": "%"}, {"measurement": "viability, T/C", "setting": "second compound 0.000949 µM, first compound 0.0316 µM", "value": 22.8, "unit": "%"}, {"measurement": "viability, T/C", "setting": "second compound 0.000949 µM, first compound 0.1 µM", "value": 30.2, "unit": "%"}, {"measurement": "viability, T/C", "setting": "second compound 0.000949 µM, first compound 0.316 µM", "value": 28.8, "unit": "%"}, {"measurement": "viability, T/C", "setting": "second compound 0.000949 µM, first compound 1 µM", "value": 23.3, "unit": "%"}, {"measurement": "viability, T/C", "setting": "second compound 0.003 µM, first compound 0.00316 µM", "value": 32.6, "unit": "%"}, {"measurement": "viability, T/C", "setting": "second compound 0.003 µM, first compound 0.01 µM", "value": 26.3, "unit": "%"}, {"measurement": "viability, T/C", "setting": "second compound 0.003 µM, first compound 0.0316 µM", "value": 23.6, "unit": "%"}, {"measurement": "viability, T/C", "setting": "second compound 0.003 µM, first compound 0.1 µM", "value": 29.8, "unit": "%"}, {"measurement": "viability, T/C", "setting": "second compound 0.003 µM, first compound 0.316 µM", "value": 29.5, "unit": "%"}, {"measurement": "viability, T/C", "setting": "second compound 0.003 µM, first compound 1 µM", "value": 27.4, "unit": "%"}, {"measurement": "viability, T/C", "setting": "second compound 0.00949 µM, first compound 0.00316 µM", "value": 31, "unit": "%"}, {"measurement": "viability, T/C", "setting": "second compound 0.00949 µM, first compound 0.01 µM", "value": 25, "unit": "%"}, {"measurement": "viability, T/C", "setting": "second compound 0.00949 µM, first compound 0.0316 µM", "value": 28.1, "unit": "%"}, {"measurement": "viability, T/C", "setting": "second compound 0.00949 µM, first compound 0.1 µM", "value": 28.5, "unit": "%"}, {"measurement": "viability, T/C", "setting": "second compound 0.00949 µM, first compound 0.316 µM", "value": 25.9, "unit": "%"}, {"measurement": "viability, T/C", "setting": "second compound 0.00949 µM, first compound 1 µM", "value": 26.9, "unit": "%"}, {"measurement": "viability, T/C", "setting": "second compound 0.03 µM, first compound 0.00316 µM", "value": 26.4, "unit": "%"}, {"measurement": "viability, T/C", "setting": "second compound 0.03 µM, first compound 0.01 µM", "value": 23, "unit": "%"}, {"measurement": "viability, T/C", "setting": "second compound 0.03 µM, first compound 0.0316 µM", "value": 25, "unit": "%"}, {"measurement": "viability, T/C", "setting": "second compound 0.03 µM, first compound 0.1 µM", "value": 21, "unit": "%"}, {"measurement": "viability, T/C", "setting": "second compound 0.03 µM, first compound 0.316 µM", "value": 16.9, "unit": "%"}, {"measurement": "viability, T/C", "setting": "second compound 0.03 µM, first compound 1 µM", "value": 21.8, "unit": "%"}, {"measurement": "viability, T/C", "setting": "second compound 0.0949 µM, first compound 0.00316 µM", "value": 18.4, "unit": "%"}, {"measurement": "viability, T/C", "setting": "second compound 0.0949 µM, first compound 0.01 µM", "value": 16.8, "unit": "%"}, {"measurement": "viability, T/C", "setting": "second compound 0.0949 µM, first compound 0.0316 µM", "value": 16, "unit": "%"}, {"measurement": "viability, T/C", "setting": "second compound 0.0949 µM, first compound 0.1 µM", "value": 14.4, "unit": "%"}, {"measurement": "viability, T/C", "setting": "second compound 0.0949 µM, first compound 0.316 µM", "value": 12.2, "unit": "%"}, {"measurement": "viability, T/C", "setting": "second compound 0.0949 µM, first compound 1 µM", "value": 13.8, "unit": "%"}, {"measurement": "viability, T/C", "setting": "second compound 0.3 µM, first compound 0.00316 µM", "value": 17.2, "unit": "%"}, {"measurement": "viability, T/C", "setting": "second compound 0.3 µM, first compound 0.01 µM", "value": 13.7, "unit": "%"}, {"measurement": "viability, T/C", "setting": "second compound 0.3 µM, first compound 0.0316 µM", "value": 14, "unit": "%"}, {"measurement": "viability, T/C", "setting": "second compound 0.3 µM, first compound 0.1 µM", "value": 11.8, "unit": "%"}, {"measurement": "viability, T/C", "setting": "second compound 0.3 µM, first compound 0.316 µM", "value": 12.9, "unit": "%"}, {"measurement": "viability, T/C", "setting": "second compound 0.3 µM, first compound 1 µM", "value": 11.1, "unit": "%"}]}]}
